Assay results from patent US11981658B2, “Substituted aminopyridine compounds as EGFR inhibitors” (YUHAN CORPORATION, priority 2021, dated 2024).
Like-named read-outs stand apart in the source and are kept apart here.

Experiments:
EGFR Del19/T790M/C797S = EGFR Del19/T790M/C797S (Homo sapiens, UniProt P00533, C797S/DEL746-750/T790M); test: Biochemical EGFR kinase inhibition assay (Lance Ultra TR-FRET), triple mutant del19/T790M/C797S
Outline: (§1)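 Enzyme reactions lasted 1 hour at room temperature with test compounds between 0.003 and 10 μM, followed by 10 mM EDTA quench.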

EGFR L858R/T790M/C797S = EGFR L858R/T790M/C797S (Homo sapiens, UniProt P00533, C797S/L858R/T790M); test: Biochemical EGFR kinase inhibition assay (Lance Ultra TR-FRET), triple mutant L858R/T790M/C797S
Outline: as §1

EGFR Del19/C797S = EGFR Del19/C797S (Homo sapiens, UniProt P00533, C797S/DEL746-750); test: Biochemical EGFR kinase inhibition assay (Lance Ultra TR-FRET), double mutant del19/C797S
Outline: as §1

EGFR L858R/C797S = EGFR L858R/C797S (Homo sapiens, UniProt P00533, C797S/L858R); test: Biochemical EGFR kinase inhibition assay (Lance Ultra TR-FRET), double mutant L858R/C797S
Outline: as §1

EGFR wildtype (WT) = EGFR wildtype (WT) (Homo sapiens, UniProt P00533); test: Biochemical EGFR kinase inhibition assay (Lance Ultra TR-FRET), wildtype
Outline: as §1

[1] = IC50 Del19/T790M/C797S (nM), 100 μM ATP
[2] = Km ATP, read-out: IC50 Del19/T790M/C797S (nM) Km ATP
[3] = IC50 L858R/T790M/C797S (nM), 100 μM ATP
[4] = Km ATP, read-out: IC50 L858R/T790M/C797S (nM) Km ATP
[5] = IC50 Del19/C797S (nM), 100 μM ATP
[6] = Km ATP, read-out: IC50 Del19/C797S (nM) Km ATP
[7] = IC50 L858R/C797S (nM), 100 μM ATP
[8] = Km ATP, read-out: IC50 L858R/C797S (nM) Km ATP
[9] = Km ATP, read-out: IC50 WT (nM) Km ATP
[10] = Km ATP, read-out: IC50 Del19/T790M/C797S (nM), Km ATP
[11] = Km ATP, read-out: IC50 L858R/T790M/C797S (nM), Km ATP
[12] = Km ATP, read-out: IC50 Del19/C797S (nM), Km ATP
[13] = Km ATP, read-out: IC50 L858R/C797S (nM), Km ATP
[14] = Km ATP, read-out: IC50 WT (nM), Km ATP
[15] = ATP at Km, read-out: IC50 Del19/T790M/C797S (nM), Km ATP
[16] = ATP at Km, read-out: IC50 L858R/T790M/C797S (nM), Km ATP
[17] = ATP at Km, read-out: IC50 Del19/C797S (nM), Km ATP
[18] = ATP at Km, read-out: IC50 L858R/C797S (nM), Km ATP
[19] = ATP at Km, read-out: IC50 WT (nM), Km ATP

Sequence of EGFR wildtype (WT) (P00533 25-1210): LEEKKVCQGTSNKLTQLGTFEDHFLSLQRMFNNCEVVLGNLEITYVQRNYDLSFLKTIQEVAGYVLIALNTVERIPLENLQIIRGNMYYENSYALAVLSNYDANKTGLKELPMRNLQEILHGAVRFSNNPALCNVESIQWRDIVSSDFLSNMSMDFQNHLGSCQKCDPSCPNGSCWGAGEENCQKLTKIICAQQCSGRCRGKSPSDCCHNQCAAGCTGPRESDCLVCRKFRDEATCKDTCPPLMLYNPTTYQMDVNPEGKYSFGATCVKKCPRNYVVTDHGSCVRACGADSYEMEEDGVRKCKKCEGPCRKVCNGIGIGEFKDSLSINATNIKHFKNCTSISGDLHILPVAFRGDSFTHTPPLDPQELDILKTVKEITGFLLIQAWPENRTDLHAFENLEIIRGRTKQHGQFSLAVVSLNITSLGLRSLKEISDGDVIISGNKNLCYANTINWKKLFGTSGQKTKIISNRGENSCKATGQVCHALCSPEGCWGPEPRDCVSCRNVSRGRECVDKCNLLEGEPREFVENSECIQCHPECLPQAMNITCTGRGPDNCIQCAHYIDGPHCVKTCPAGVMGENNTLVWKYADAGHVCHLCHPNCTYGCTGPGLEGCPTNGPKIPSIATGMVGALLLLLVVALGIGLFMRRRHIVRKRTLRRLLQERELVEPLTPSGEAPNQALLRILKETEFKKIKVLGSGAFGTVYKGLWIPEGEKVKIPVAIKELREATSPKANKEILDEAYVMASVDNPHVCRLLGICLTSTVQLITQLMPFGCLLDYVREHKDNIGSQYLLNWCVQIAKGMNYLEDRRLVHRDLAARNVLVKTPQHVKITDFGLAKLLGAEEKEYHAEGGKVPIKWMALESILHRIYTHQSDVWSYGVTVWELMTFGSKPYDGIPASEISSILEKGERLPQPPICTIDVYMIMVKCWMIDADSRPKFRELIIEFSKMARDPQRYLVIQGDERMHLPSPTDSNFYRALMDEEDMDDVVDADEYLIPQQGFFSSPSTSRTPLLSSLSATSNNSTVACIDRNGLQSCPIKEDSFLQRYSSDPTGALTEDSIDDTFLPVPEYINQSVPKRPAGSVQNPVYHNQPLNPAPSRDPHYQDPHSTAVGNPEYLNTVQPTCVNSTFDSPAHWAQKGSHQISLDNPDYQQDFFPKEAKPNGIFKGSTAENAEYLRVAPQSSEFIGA
Sequence of EGFR L858R/C797S (P00533 25-1210 C797S/L858R): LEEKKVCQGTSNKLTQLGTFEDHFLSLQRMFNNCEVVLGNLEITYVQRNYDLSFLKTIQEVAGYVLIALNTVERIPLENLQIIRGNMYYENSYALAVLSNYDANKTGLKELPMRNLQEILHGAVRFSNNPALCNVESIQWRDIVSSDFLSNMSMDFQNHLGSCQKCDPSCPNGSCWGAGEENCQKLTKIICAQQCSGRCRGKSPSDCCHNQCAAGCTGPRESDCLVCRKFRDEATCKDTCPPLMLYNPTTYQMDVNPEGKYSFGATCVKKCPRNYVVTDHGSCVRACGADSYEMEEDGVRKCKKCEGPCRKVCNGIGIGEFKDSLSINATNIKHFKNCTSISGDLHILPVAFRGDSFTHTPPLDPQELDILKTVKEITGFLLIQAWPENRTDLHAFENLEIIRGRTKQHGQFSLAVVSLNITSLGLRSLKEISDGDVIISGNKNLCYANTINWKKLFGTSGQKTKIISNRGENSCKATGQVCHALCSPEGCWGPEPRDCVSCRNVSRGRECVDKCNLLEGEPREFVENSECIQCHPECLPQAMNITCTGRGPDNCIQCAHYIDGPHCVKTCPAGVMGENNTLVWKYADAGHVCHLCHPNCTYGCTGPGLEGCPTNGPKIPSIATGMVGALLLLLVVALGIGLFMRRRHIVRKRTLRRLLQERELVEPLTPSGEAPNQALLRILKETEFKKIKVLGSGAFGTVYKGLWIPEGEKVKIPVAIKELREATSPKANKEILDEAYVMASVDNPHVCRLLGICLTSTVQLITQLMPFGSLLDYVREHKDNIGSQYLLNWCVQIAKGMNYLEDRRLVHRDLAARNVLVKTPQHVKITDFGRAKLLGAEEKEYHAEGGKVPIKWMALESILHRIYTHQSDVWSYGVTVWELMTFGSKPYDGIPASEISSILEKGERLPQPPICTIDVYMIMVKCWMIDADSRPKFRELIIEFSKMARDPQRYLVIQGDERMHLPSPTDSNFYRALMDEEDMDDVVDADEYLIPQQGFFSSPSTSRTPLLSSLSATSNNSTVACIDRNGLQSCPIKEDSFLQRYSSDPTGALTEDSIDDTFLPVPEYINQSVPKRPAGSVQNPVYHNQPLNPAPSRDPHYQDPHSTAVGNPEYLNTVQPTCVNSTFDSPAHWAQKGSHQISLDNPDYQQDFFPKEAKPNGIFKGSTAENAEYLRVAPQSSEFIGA
Sequence of EGFR L858R/T790M/C797S (P00533 25-1210 T790M/C797S/L858R): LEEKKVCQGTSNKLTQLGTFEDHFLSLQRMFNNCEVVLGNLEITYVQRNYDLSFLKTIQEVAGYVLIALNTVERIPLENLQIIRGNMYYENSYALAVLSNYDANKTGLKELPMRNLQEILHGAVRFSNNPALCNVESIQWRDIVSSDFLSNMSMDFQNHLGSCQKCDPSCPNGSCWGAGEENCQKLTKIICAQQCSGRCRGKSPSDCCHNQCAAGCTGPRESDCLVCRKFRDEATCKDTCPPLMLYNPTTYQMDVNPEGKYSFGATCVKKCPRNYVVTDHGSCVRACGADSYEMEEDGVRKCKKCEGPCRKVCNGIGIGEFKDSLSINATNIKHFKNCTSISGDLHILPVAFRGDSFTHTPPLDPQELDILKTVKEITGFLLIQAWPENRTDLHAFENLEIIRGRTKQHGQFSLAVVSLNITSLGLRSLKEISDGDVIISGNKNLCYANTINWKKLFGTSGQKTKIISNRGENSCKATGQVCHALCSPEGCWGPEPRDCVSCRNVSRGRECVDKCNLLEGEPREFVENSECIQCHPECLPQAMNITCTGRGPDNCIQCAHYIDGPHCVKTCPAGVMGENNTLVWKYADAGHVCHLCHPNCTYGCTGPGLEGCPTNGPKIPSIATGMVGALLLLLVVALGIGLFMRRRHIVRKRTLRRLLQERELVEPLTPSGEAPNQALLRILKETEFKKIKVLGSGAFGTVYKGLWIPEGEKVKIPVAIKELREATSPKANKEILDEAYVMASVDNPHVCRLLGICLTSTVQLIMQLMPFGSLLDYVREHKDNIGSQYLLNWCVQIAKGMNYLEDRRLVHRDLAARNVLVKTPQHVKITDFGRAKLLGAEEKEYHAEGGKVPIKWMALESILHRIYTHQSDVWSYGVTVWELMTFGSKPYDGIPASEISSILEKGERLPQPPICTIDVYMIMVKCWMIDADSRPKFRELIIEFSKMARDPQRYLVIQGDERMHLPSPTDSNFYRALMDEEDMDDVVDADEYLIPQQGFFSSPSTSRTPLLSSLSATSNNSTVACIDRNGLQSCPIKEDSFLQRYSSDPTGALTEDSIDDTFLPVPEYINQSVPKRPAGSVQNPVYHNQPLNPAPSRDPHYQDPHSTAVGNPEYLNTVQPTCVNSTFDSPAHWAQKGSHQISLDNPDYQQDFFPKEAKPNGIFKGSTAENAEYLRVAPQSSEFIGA
Sequence of EGFR Del19/C797S (P00533 with tags, fused parts or gaps DEL746-750/C797S): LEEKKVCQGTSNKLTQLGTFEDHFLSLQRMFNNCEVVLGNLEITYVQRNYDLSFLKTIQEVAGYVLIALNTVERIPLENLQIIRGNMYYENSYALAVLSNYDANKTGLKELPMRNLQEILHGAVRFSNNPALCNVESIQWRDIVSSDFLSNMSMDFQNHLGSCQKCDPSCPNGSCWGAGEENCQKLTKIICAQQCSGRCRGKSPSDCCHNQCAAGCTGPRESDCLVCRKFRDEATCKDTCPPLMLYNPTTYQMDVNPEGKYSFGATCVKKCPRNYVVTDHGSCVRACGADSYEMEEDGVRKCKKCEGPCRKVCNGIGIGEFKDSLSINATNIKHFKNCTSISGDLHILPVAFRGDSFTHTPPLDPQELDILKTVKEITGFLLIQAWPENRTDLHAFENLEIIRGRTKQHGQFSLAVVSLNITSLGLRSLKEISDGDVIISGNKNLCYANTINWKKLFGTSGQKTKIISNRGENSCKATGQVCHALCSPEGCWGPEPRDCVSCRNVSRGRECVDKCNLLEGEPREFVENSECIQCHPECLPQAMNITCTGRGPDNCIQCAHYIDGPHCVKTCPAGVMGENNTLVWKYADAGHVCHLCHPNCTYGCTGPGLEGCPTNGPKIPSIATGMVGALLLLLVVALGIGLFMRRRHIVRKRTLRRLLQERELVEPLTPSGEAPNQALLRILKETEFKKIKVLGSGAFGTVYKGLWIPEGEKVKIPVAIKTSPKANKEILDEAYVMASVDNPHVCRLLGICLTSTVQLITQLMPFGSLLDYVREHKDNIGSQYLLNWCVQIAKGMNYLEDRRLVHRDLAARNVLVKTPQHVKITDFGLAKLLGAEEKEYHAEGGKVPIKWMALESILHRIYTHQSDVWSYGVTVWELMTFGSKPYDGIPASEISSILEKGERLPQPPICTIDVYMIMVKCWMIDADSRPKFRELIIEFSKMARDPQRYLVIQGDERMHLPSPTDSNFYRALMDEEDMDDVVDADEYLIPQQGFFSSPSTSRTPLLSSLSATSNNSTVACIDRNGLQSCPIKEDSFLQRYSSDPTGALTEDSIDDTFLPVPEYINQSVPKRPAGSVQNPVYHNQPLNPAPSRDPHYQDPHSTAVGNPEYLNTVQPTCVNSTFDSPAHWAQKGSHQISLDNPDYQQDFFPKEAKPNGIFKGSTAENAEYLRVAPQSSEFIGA

SMILES	IC50 (EGFR Del19/T790M/C797S; [1]) [nM]	IC50 (EGFR Del19/T790M/C797S; [2]) [nM]	IC50 (EGFR L858R/T790M/C797S; [3]) [nM]	IC50 (EGFR L858R/T790M/C797S; [4]) [nM]	IC50 (EGFR Del19/C797S; [5]) [nM]	IC50 (EGFR Del19/C797S; [6]) [nM]	IC50 (EGFR L858R/C797S; [7]) [nM]	IC50 (EGFR L858R/C797S; [8]) [nM]	IC50 (EGFR wildtype (WT); IC50 WT (nM), 100 μM ATP) [nM]	IC50 (EGFR wildtype (WT); [9]) [nM]	IC50 (EGFR Del19/T790M/C797S; [10]) [nM]	IC50 (EGFR L858R/T790M/C797S; [11]) [nM]	IC50 (EGFR Del19/C797S; [12]) [nM]	IC50 (EGFR L858R/C797S; [13]) [nM]	IC50 (EGFR wildtype (WT); [14]) [nM]	IC50 (EGFR Del19/T790M/C797S; [15]) [nM]	IC50 (EGFR L858R/T790M/C797S; [16]) [nM]	IC50 (EGFR Del19/C797S; [17]) [nM]	IC50 (EGFR L858R/C797S; [18]) [nM]	IC50 (EGFR wildtype (WT); [19]) [nM]
O=S(=O)(C1CC1)n1cc(-c2nccc(Nc3cc(N[C@H]4CC[C@@H](O)CC4)c(C#Cc4cnn(CCF)c4)cn3)n2)cn1 [Example 42, (1s,4s)-4-((2-((2-(1-(Cyclopropylsulfonyl)-1H-pyrazol-4-yl)pyrimidin-4-yl)amino)-5-((1-(2-fluoroethyl)-1H-pyrazol-4-yl)ethynyl)pyridin-4-yl)amino)cyclohexan-1-ol]	1.1		1.2		3.2		11.5		> 10000											
O=S(=O)(C1CC1)n1cc(-c2nccc(Nc3cc(N4CCCC(O)C4)c(C#Cc4cnn(CC(F)(F)F)c4)cn3)n2)cn1 (stereo not drawn) [Example 343, 1-(2-((2-(1-(Cyclopropylsulfonyl)-1H-pyrazol-4-yl)pyrimidin-4-yl)amino)-5-((1-(2,2,2-trifluoroethyl)-1H-pyrazol-4-yl)ethynyl)pyridin-4-yl)piperidin-3-ol]	1.9		3.1		19.2		68.1		> 10000		2.6	0.7	11.9	19.8	55.5					
O=S(=O)(C1CC1)n1cc(-c2nccc(Nc3cc(NC[C@H]4CC[C@H](CO)CC4)c(C#Cc4cnn(CCF)c4)cn3)n2)cn1 [Example 381, ((1 r,4r)-4-(((2-((2-(1-(Cyclopropylsulfonyl)-1H-pyrazol-4-yl)pyrimidin-4-yl)amino)-5-((1-(2-fluoroethyl)-1H-pyrazol-4-yl)ethynyl)pyridin-4-yl)amino)methyl)cyclohexyl)methanol]	3.1		7.9		75.5		1290		> 10000		2.9	3.4	33.3	37.9	226					
COC1CCN(c2cc(Nc3ccnc(-c4cnn(S(=O)(=O)C5CC5)c4)n3)ncc2C#Cc2cnn(C3CCN(C(C)=O)CC3)c2)CC1 [Example 113, 1-(4-(4-((6-((2-(1-(Cyclopropylsulfonyl)-1H-pyrazol-4-yl)pyrimidin-4-yl)amino)-4-(4-methoxypiperidin-1-yl)pyridin-3-yl)ethynyl)-1H-pyrazol-1-yl)piperidin-1-yl)ethan-1-one]	1.3	1.3	2.9	0.8	4	3.2	11.3	2.6	7550	12										
CC(O)C1CCN(c2cc(Nc3ccnc(-c4cnn(S(=O)(=O)C5CC5)c4)n3)ncc2C#Cc2cnn(C(F)(F)F)c2)CC1 (stereo not drawn) [Example 328, 1-(1-(2-((2-(1-(Cyclopropylsulfonyl)-1H-pyrazol-4-yl)pyrimidin-4-yl)amino)-5-((1-(trifluoromethyl)-1H-pyrazol-4-yl)ethynyl)pyridin-4-yl)piperidin-4-yl)ethan-1-ol]	3.1		22.7		648		47.4		> 10000							5.3	1	36.6	25.8	162
Cn1cc(C#Cc2cnc(Nc3ccnc(-c4cnn(S(=O)(=O)C5CC5)c4)n3)cc2N[C@@H]2CCC[C@@H](O)C2)cn1 [Example 76, (1R,3R)-3-((2-((2-(1-(Cyclopropylsulfonyl)-1H-pyrazol-4-yl)pyrimidin-4-yl)amino)-5-((1-methyl-1H-pyrazol-4-yl)ethynyl)pyridin-4-yl)amino)cyclohexan-1-ol]	4	3.7	8.8	2.2	80.7	51.9	2780	22.1	> 10000	667										

Now from value to compound:

IC50 (EGFR Del19/T790M/C797S; [1]) [nM]	IC50 (EGFR Del19/T790M/C797S; [2]) [nM]	IC50 (EGFR L858R/T790M/C797S; [3]) [nM]	IC50 (EGFR L858R/T790M/C797S; [4]) [nM]	IC50 (EGFR Del19/C797S; [5]) [nM]	IC50 (EGFR Del19/C797S; [6]) [nM]	IC50 (EGFR L858R/C797S; [7]) [nM]	IC50 (EGFR L858R/C797S; [8]) [nM]	IC50 (EGFR wildtype (WT); IC50 WT (nM), 100 μM ATP) [nM]	IC50 (EGFR wildtype (WT); [9]) [nM]	IC50 (EGFR Del19/T790M/C797S; [10]) [nM]	IC50 (EGFR L858R/T790M/C797S; [11]) [nM]	IC50 (EGFR Del19/C797S; [12]) [nM]	IC50 (EGFR L858R/C797S; [13]) [nM]	IC50 (EGFR wildtype (WT); [14]) [nM]	IC50 (EGFR Del19/T790M/C797S; [15]) [nM]	IC50 (EGFR L858R/T790M/C797S; [16]) [nM]	IC50 (EGFR Del19/C797S; [17]) [nM]	IC50 (EGFR L858R/C797S; [18]) [nM]	IC50 (EGFR wildtype (WT); [19]) [nM]	SMILES
0.4	0.3	0.3	0.2	0.7	0.4	3.4	0.3	1020	3.7											CN(C)CCn1cc(C#Cc2cnc(Nc3ccnc(-c4cnn(S(=O)(=O)C5CC5)c4)n3)cc2N2CCC(F)(CO)CC2)cn1 [Example 117, (1-(2-((2-(1-(Cyclopropylsulfonyl)-1H-pyrazol-4-yl)pyrimidin-4-yl)amino)-5-((1-(2-(dimethylamino)ethyl)-1H-pyrazol-4-yl)ethynyl)pyridin-4-yl)-4-fluoropiperidin-4-yl)methanol]
0.4	0.2	0.2	0.1	0.4	0.2	0.7	0.2	43.3	0.4											CN1CCC(n2cc(C#Cc3cnc(Nc4ccnc(-c5cnn(S(=O)(=O)C6CC6)c5)n4)cc3N3CCC(C)(CO)CC3)cn2)CC1 [Example 147, (1-(2-((2-(1-(Cyclopropylsulfonyl)-1H-pyrazol-4-yl)pyrimidin-4-yl)amino)-5-((1-(1-methylpiperidin-4-yl)-1H-pyrazol-4-yl)ethynyl)pyridin-4-yl)-4-methylpiperidin-4-yl)methanol]
1.2		0.4		1.3		18.9		2670		1	0.2									CC1(CO)CCN(c2cc(Nc3ccnc(-c4cnn(S(=O)(=O)C5CC5)c4)n3)ncc2C#Cc2ccc(C(=O)N3CCC(O)CC3)cc2)CC1 [Example 446, (4-((6-((2-(1-(Cyclopropylsulfonyl)-1H-pyrazol-4-yl)pyrimidin-4-yl)amino)-4-(4-(hydroxymethyl)-4-methylpiperidin-1-yl)pyridin-3-yl)ethynyl)phenyl)(4-hydroxypiperidin-1-yl)methanone]
0.9	0.8	1.3	0.5	2	2	4.7	1.2	4380	6											CC(=O)N1CCC(n2cc(C#Cc3cnc(Nc4ccnc(-c5cnn(S(=O)(=O)C6CC6)c5)n4)cc3N3CCC(F)(CO)CC3)cn2)CC1 [Example 111, 1-(4-(4-((6-((2-(1-(Cyclopropylsulfonyl)-1H-pyrazol-4-yl)pyrimidin-4-yl)amino)-4-(4-fluoro-4-(hydroxymethyl)piperidin-1-yl)pyridin-3-yl)ethynyl)-1H-pyrazol-1-yl)piperidin-1-yl)ethan-1-one]
0.5		0.7		2.5		66.5		4870							0.6	0.4	2	7.5	17.7	CC1(CO)CCN(c2cc(Nc3ccnc(-c4cnn(S(=O)(=O)C5CC5)c4)n3)ncc2C#CC2(O)CCCC2)CC1 [Example 177, 1-((6-((2-(1-(Cyclopropylsulfonyl)-1H-pyrazol-4-yl)pyrimidin-4-yl)amino)-4-(4-(hydroxymethyl)-4-methylpiperidin-1-yl)pyridin-3-yl)ethynyl)cyclopentan-1-ol]
1.3	1.6	5.9	0.7	12.4	10.4	563	22.1	> 10000	163											Cn1cc(C#Cc2cnc(Nc3ccnc(-c4cnn(S(=O)(=O)C5CC5)c4)n3)cc2N2CCCC(CO)CC2)cn1 (stereo not drawn) [Example 78, (1-(2-((2-(1-(Cyclopropylsulfonyl)-1H-pyrazol-4-yl)pyrimidin-4-yl)amino)-5-((1-methyl-1H-pyrazol-4-yl)ethynyl)pyridin-4-yl)azepan-4-yl)methanol]
3.3		6.7		7.2		33		> 10000												O=S(=O)(C1CC1)n1cc(-c2nccc(Nc3cc(N4CCC(CCO)CC4)c(C#Cc4cnn(C5CC5(F)F)c4)cn3)n2)cn1 (stereo not drawn) [Example 84, 2-(1-(2-((2-(1-(Cyclopropylsulfonyl)-1H-pyrazol-4-yl)pyrimidin-4-yl)amino)-5-((1-(2,2-difluorocyclopropyl)-1H-pyrazol-4-yl)ethynyl)pyridin-4-yl)piperidin-4-yl)ethan-1-ol]
